Results reported in patent US4435396A, “Antiulcer 2-guanidino-4-(2-substituted-amino-4-imidazolyl)thiazoles and process therefor” (Pfizer Inc., priority 1982, dated 1984).
Where “and” joins values, the source holds several entries; their conditions need not be identical. Identical values can stand only once.

What was measured:
[1] = test system: ethanol-induced ulceration in rats; assay: Inhibition of ethanol-induced ulceration in rats; type: in vivo, rat; conditions: oral dose of 30 mg/kg; for inhibition in vivo at 30 mg/kg: Rattus norvegicus, po
Procedure: The antiulcer activity of the products of this invention was also determined by an ethanol-induced rat ulcer assay. […] One hour after the ethanol challenge the animals (8/group) are killed and the stomachs examined for the presence of lesions. After sacrifice the abdomen is opened and a locking hemostat placed at the pylorus. Six ml of a 4% solution of formaldehyde was injected into the stomach with a gastric feeding tube and a second locking hemostat was used to seal the esophagus. The stomach was removed, opened along the greater curvature and examined for ulceration.
The scoring system used to quantitate the ethanol-induced lesions is given below.
For each group of animals an ulcer index is calculated as follows:
Ulceration Index=(the sum of the scores of the group)×(the sum of the number of ulcers in the group)×(the fraction of the group having any incidence of ulceration).
The percentage inhibition of ulcers is calculated as follows:
% Inhibition=100×[(ulcer index controls)-(ulcer index
drug-treated)].div.(ulcer index controls).

H2 -receptor = molecular target: T1, H2 -receptor (Cavia porcellus, UniProt P47747); assay: Histamine-H2 antagonist activity in isolated guinea pig right atria; type: cell-based; conditions: histamine dose-response, read-out: pA2 (apparent dissociation constant of the H2-receptor antagonist) (converted)
T1 construct: the heart removed and the right atria dissected free; from tissue; host or cells: guinea pig right atria
T1 sequence (P47747 whole entry): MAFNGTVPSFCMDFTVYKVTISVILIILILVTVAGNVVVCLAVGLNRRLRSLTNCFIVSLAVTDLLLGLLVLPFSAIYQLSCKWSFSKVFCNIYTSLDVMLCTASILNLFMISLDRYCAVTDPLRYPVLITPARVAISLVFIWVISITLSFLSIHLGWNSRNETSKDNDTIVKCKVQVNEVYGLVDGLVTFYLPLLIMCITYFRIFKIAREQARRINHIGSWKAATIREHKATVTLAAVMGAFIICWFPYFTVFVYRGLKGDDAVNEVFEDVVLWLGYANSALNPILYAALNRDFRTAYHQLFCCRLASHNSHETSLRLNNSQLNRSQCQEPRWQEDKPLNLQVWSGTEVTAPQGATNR
Procedure: The histamine-H2 antagonist activity of compounds of the present invention was determined by the following procedure:
Guinea pigs are killed rapidly with a blow to the head, the heart removed and the right atria dissected free. Atria are suspended, isometrically, in a temperature-controlled (32°±2°) tissue bath (10 ml) containing oxygenated (95% O2; 5% CO2) Krebs-Henseleit buffer (pH 7.4) and are allowed to stabilize approximately one hour during which time the tissue bath is flushed several times. Individual atrial contractions are followed with a force-displacement transducer connected to a cardiotachometer and Grass polygraph recorder. After obtaining a dose-response curve to histamine, the bath containing each atrium is flushed several times with fresh buffer and the atria reequilibrated to basal rates. Following the return to basal rate, test compounds are addded at selected final concentrations and the histamine dose-response curve is again determined in the presence of antagonist. Results are expressed as dose-ratios, the ratio of histamine concentrations required to produce one-half of maximal stimulation in the presence and absence of antagonist, and the apparent dissociation constant of the H2 -receptor antagonist pA2, is determined.

Heidenhain pouch dogs = assay: Gastric acid antisecretory activity in pentagastrin-stimulated conscious Heidenhain pouch dogs; type: in vivo, dog; conditions: intravenously
Procedure: The gastric acid antisecretory activity of compounds of the present invention was determined in overnight fasted, conscious Heidenhain pouch dogs. Pentagastrin (Pentavolon-Ayerst) was used to stimulate acid output by continuous infusion into a superficial leg vein at doses earlier determined to stimulate near maximal acid output from the gastric pouch. Gastric juice was collected at 30 minute intervals following the start of a pentagastrin infusion and measured to the nearest 0.1 ml. Ten collections were taken for each dog during an experiment. Acid concentration was determined by tritrating 1.0 ml of gastric juice to pH 7.4 with 0.1 N sodium hydroxide using an Autoburette and a glass electrode pH meter (Radiometer).
Drug or vehicle was given intravenously 90 minutes following the start of the pentagastrin infusion, at a dose of 1 mg/kg or less. Gastric acid antisecretory effects were calculated by comparing the lowest acid output after drug administration with the mean acid output immediately before drug.

[2] = dose of 1 mg/kg, pentagastrin-stimulated Heidenhain pouch dogs

Compound: CCN(C)c1nc(-c2csc(N=C(N)N)n2)c[nH]1 [product y]
- inhibition in vivo at 30 mg/kg [1]: ≥ 19%

Compound: NC(N)=Nc1nc(-c2c[nH]c(N3CCCC3)n2)cs1 [product bb]
- inhibition in vivo at 30 mg/kg [1]: ≥ 19%

Compound: NC(N)=Nc1nc(-c2c[nH]c(NC3CCCCC3)n2)cs1 [product p]
- inhibition in vivo at 30 mg/kg [1]: 7 to 13%

Compound: NC(N)=Nc1nc(-c2c[nH]c(NCCCc3ccccc3)n2)cs1 [product s]
- Kb (H2 -receptor): ≤ 100 nM
- inhibition in vivo at 30 mg/kg [1]: 86 to 100%

Compound: NC(N)=Nc1nc(-c2c[nH]c(N3CCCCC3)n2)cs1 [product cc]
- inhibition of gastric secretion (Heidenhain pouch dogs; 0.1 mg/kg, Heidenhain pouch dogs): 72%
- inhibition of gastric secretion (Heidenhain pouch dogs; [2]): at least 21%
- inhibition in vivo at 30 mg/kg [1]: ≥ 19%

Compound: NC(N)=Nc1nc(-c2c[nH]c(NCCCCc3ccccc3)n2)cs1 [product t]
- Kb (H2 -receptor): ≤ 100 nM
- inhibition in vivo at 30 mg/kg [1]: 86 to 100%

Compound: CN(C)c1nc(-c2csc(N=C(N)N)n2)c[nH]1 [product x]
- inhibition of ethanol-induced ulceration [1]: no significant activity

Compound: NC(N)=Nc1nc(-c2c[nH]c(NCCc3ccccn3)n2)cs1 [product v]
- inhibition of ethanol-induced ulceration [1]: no significant activity

Compound: CCN(CC)c1nc(-c2csc(N=C(N)N)n2)c[nH]1 [product z]
- inhibition in vivo at 30 mg/kg [1]: ≥ 19%

Compound: NC(N)=Nc1nc(-c2c[nH]c(N3CCOCC3)n2)cs1 [product aa]
- inhibition of ethanol-induced ulceration [1]: no significant activity

Compound: NC(N)=Nc1nc(-c2c[nH]c(NCCc3ccccc3)n2)cs1 [product r]
- inhibition of gastric secretion (Heidenhain pouch dogs; [2]): at least 21%

Compound: CC(C)CCNc1nc(-c2csc(N=C(N)N)n2)c[nH]1 [product m]
- inhibition in vivo at 30 mg/kg [1]: ≥ 19%

Compound: NC(N)=Nc1nc(-c2c[nH]c(NCc3ccccc3)n2)cs1 [product q]
- inhibition in vivo at 30 mg/kg [1]: 7 to 13%

Compound: NC(N)=Nc1nc(-c2c[nH]c(NC3CC3)n2)cs1 [product n]
- inhibition of gastric secretion (Heidenhain pouch dogs; [2]): at least 21%
- inhibition of gastric secretion (Heidenhain pouch dogs; dose of 3 microg/kg, Heidenhain pouch dogs): 42%
- Kb (H2 -receptor): ≤ 1260 nM and ≤ 100 nM and 1.58 nM
- inhibition in vivo at 30 mg/kg [1]: 7 to 13%

Compound: NC(N)=Nc1nc(-c2c[nH]c(NC3CCCC3)n2)cs1 [product o]
- Kb (H2 -receptor): ≤ 1260 nM
- inhibition of ethanol-induced ulceration [1]: no significant activity

Compound: NC(N)=Nc1nc(-c2c[nH]c(NCCc3ccc(Cl)cc3)n2)cs1 [product w]
- inhibition of gastric secretion (Heidenhain pouch dogs; the same (1 mg/kg) or a lower dose, Heidenhain pouch dogs): at least 97%
- Kb (H2 -receptor): ≤ 100 nM

Compound: NC(N)=Nc1nc(-c2c[nH]c(NCCc3ccncc3)n2)cs1 [product u]
- inhibition in vivo at 30 mg/kg [1]: 21 to 51%
